Test results from the supplement of paper PMC10331698.
± gives the standard deviation of the averaged measurements.

Key:
Test in all cases: level (log10 ratio to DMSO vehicle control); higher = higher biomarker level / cell amount than vehicle control
Details in all cases: in DMSO
[1] = compound: C=CC(=O)OCCC(F)(F)C(F)(F)C(F)(F)C(F)(F)F [2-(Perfluorobutyl)ethyl acrylate]
Procedure: (§1)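 BioMAP Diversity Plus panel of 12 human primary cell co-culture systems (3C, 4H, LPS, SAg, BT, BF4T, BE3C, CASM3C, HDF3CGF, KF3CT, MyoF, Mphg). Compounds were added 1 h before stimulation and left for 24 h (MyoF 48 h; BT 72 h for soluble read-outs or 6 d for IgG). Biomarkers were read by ELISA, cytotoxicity by SRB, PBMC viability and proliferation by Alamar Blue. Each well value was divided by the mean of 8 DMSO control wells on the same plate and log10 transformed; duplicate blinded samples were tested at 4 concentrations.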

[2] = compound: N=C(N)C(F)(F)C(F)(F)C(F)(F)C(F)(F)C(F)(F)C(F)(F)C(F)(F)F [Perfluorooctanamidine]
Procedure: as §1

[3] = compound: O=C(O)C(F)(F)C(F)(F)C(F)(F)C(F)(F)C(F)(F)C(F)(F)C(F)(F)C(F)(F)C(F)(F)C(F)(F)C(F)(F)C(F)(F)F [Perfluorotridecanoic acid]
Procedure: as §1

[4] = compound: O=C(O)C(F)(F)C(F)(F)C(F)(F)C(F)(F)C(F)(F)F [Perfluorohexanoic acid]
Procedure: as §1

[5] = compound: O=P(O)(O)CCC(F)(F)C(F)(F)C(F)(F)C(F)(F)C(F)(F)C(F)(F)C(F)(F)C(F)(F)F [((Perfluorooctyl)ethyl)phosphonic acid]
Procedure: as §1

[6] = compound: O=S(=O)(O)C(F)(F)C(F)(F)C(F)(F)C(F)(F)C(F)(F)C(F)(F)C(F)(F)C(F)(F)F [Potassium perfluorooctanesulfonate]
Procedure: as §1

Test System | level (log10) ([1]; 6700 nM) | level (log10) ([1]; 20000 nM) | level (log10) ([1]; 60000 nM) | level (log10) ([2]; 6700 nM) | level (log10) ([2]; 20000 nM) | level (log10) ([2]; 60000 nM) | level (log10) ([3]; 1500 nM) | level (log10) ([3]; 4400 nM) | level (log10) ([3]; 13000 nM) | level (log10) ([3]; 40000 nM) | level (log10) ([4]; 6700 nM) | level (log10) ([4]; 20000 nM) | level (log10) ([4]; 60000 nM) | level (log10) ([5]; 6700 nM) | level (log10) ([5]; 20000 nM) | level (log10) ([5]; 60000 nM) | level (log10) ([6]; 6700 nM) | level (log10) ([6]; 20000 nM) | level (log10) ([6]; 60000 nM)
MyoF:SRB | -0.001 ± 0.0099 | -0.004 ± 0.011 | -0.0085 ± 0.00071 | 0.007 ± 0.0028 | -0.003 ± 0.0042 | 0.013 | 0.0015 ± 0.0064 | 0.002 ± 0.0014 | 0.0005 ± 0.0021 | 0.002 ± 0.0042 | 0.009 ± 0.0014 | 0.008 ± 0.0085 | 0.007 ± 0.0057 | 0.002 ± 0.0042 | 0.0025 ± 0.0064 | 0.004 | -0.001 ± 0.011 | -0.0085 ± 0.0035 | -0.0145 ± 0.016
KF3CT:IL-1alpha | -0.036 ± 0.0057 | -0.075 ± 0.013 | -0.059 ± 0.038 | -0.005 ± 0.04 | 0.0115 ± 0.011 | 0.03 | -0.025 ± 0.0099 | -0.0435 ± 0.0035 | -0.074 ± 0.018 | -0.1075 ± 0.00071 | -0.0045 ± 0.011 | -0.0185 ± 0.011 | 0.008 ± 0.021 | 0.0025 ± 0.019 | 0.0035 ± 0.011 | 0.0025 ± 0.029 | -0.0105 ± 0.016 | -0.0085 ± 0.026 | -0.029 ± 0.0028
HDF3CGF:CXCL10/IP-10 | -0.0135 ± 0.029 | -0.0985 ± 0.013 | -0.281 ± 0.032 | 0.024 ± 0.014 | -0.004 ± 0.034 | -0.122 | -0.0955 ± 0.063 | -0.234 ± 0.2 | -0.236 ± 0.098 | -0.235 ± 0.13 | -0.0135 ± 0.023 | -0.0215 ± 0.0035 | -0.0235 ± 0.013 | 0.077 ± 0.0014 | 0.0255 ± 0.005 | -0.0375 ± 0.005 | -0.0815 ± 0.03 | -0.131 ± 0.06 | -0.313 ± 0.044
MyoF:alpha-SM Actin | -0.0075 ± 0.0078 | -0.0325 ± 0.00071 | -0.0665 ± 0.00071 | 0.0015 ± 0.054 | -0.009 ± 0.042 | 0.066 | 0.038 ± 0.067 | 0.041 ± 0.11 | 0.023 ± 0.086 | 0.0055 ± 0.09 | -0.021 ± 0.016 | 0.011 ± 0.0099 | 0.013 ± 0.037 | 0.0005 ± 0.046 | -0.001 ± 0.038 | 0.004 ± 0.031 | -0.0215 ± 0.079 | -0.027 ± 0.075 | -0.0175 ± 0.066
lMphg:CD40 | -0.002 | -0.0165 ± 0.0064 | -0.0255 ± 0.0064 | -0.016 ± 0.023 | -0.0145 ± 0.005 | -0.046 | -0.0245 ± 0.021 | -0.0355 ± 0.0064 | -0.051 ± 0.0071 | -0.2 ± 0.057 | 0.0105 ± 0.0078 | 0.016 ± 0.02 | -0.008 ± 0.0028 | -0.015 ± 0.017 | -0.065 ± 0.017 | -0.037 ± 0.021 | -0.0245 ± 0.0035 | -0.0125 ± 0.0092 | 0.002 ± 0.017
KF3CT:SRB | -0.01 ± 0.0028 | -0.0095 ± 0.005 | -0.0205 ± 0.013 | -0.001 ± 0.0014 | -0.004 ± 0.0014 | 0.027 | 0.0015 ± 0.00071 | -0.0055 ± 0.0021 | -0.0095 ± 0.0021 | -0.035 ± 0.0042 | 0.0045 ± 0.0035 | -0.012 ± 0.0014 | 0.0045 ± 0.00071 | 0.0025 ± 0.0035 | -0.001 ± 0.013 | 0.0085 ± 0.00071 | -0.0075 ± 0.0078 | -0.011 ± 0.0014 | -0.006 ± 0.0057
KF3CT:MMP-9 | -0.01 ± 0.02 | -0.0045 ± 0.012 | -0.022 ± 0.013 | -0.006 ± 0.0028 | -0.0275 ± 0.023 | -0.032 | 0.0045 ± 0.012 | -0.007 ± 0.0028 | -0.0155 ± 0.013 | -0.0265 ± 0.019 | -0.009 ± 0.014 | -0.0055 ± 0.0035 | 0.017 ± 0.016 | -0.0095 ± 0.0064 | -0.027 ± 0.0042 | -0.0365 ± 0.013 | -0.013 ± 0.0099 | -0.038 ± 0.0042 | -0.0735 ± 0.023
lMphg:CD62E/E-Selectin | 0.01 ± 0.0071 | -0.006 ± 0.0099 | 0.001 ± 0.0042 | 0.0065 ± 0.042 | 0.0655 ± 0.015 | 0.049 | -0.038 ± 0.0028 | -0.045 ± 0.0014 | -0.0395 ± 0.029 | -0.007 ± 0.0071 | 0.0025 ± 0.016 | 0 ± 0.0014 | -0.014 ± 0.0042 | 0.011 ± 0.0014 | 0.027 ± 0.0085 | 0.113 ± 0.018 | 0.0145 ± 0.0092 | 0.052 ± 0.023 | 0.204
